SMILES strings stand for the structures.
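Note: ALL cell lines in 384-well plates, five doses spanning 10,000-fold, each plate scaled between vehicle and 100 µmol/L benzalkonium chloride controls, sDSS an adapted area-under-curve metric.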

The first experiment deals with COG-LL-317. The experiment can be described thus: selective drug sensitivity score (sDSS, relative to normal bone marrow) (sDSS (score)); higher = more potent and effective on the cell line relative to normal bone marrow cells. To be noted: 72 h.
Regarding `COC12C(COC(N)=O)C3=C(C(=O)C(C)=C(N)C3=O)N1CC1NC12` (stereo in doubt) [Mitomycin_C] (top concentration 10000 nM), the “selective drug sensitivity score” value was -2.66.
Same read-out and setting: with `Cc1c(-c2c(-c3ccc(F)o3)sc3ncnc(O[C@H](Cc4ccccc4OCc4ccnn4CC(F)(F)F)C(=O)O)c23)ccc(OCCN2CCN(C)CC2)c1Cl` (top concentration 1000 nM) the figure was -2.84.
As for `Cc1ncc(Cl)cc1NCc1ccc(C(=O)N[C@@H](CC2CCCC2)C(=O)NC2CC2)s1` (top concentration 5000 nM), the “selective drug sensitivity score” value worked out at 18.9.
With `CCn1c(-c2nonc2N)nc2c(C#CC(C)(C)O)ncc(OC[C@H]3CCCNC3)c21` (top concentration 10000 nM), the “selective drug sensitivity score” value stood at 14.8.
Regarding `CN(c1ncccc1CNc1nc(Nc2ccc3c(c2)CC(=O)N3)ncc1C(F)(F)F)S(C)(=O)=O` (top concentration 10000 nM), the “selective drug sensitivity score” value was -1.28.
For `CNc1ncc2cc(-c3cc(NC(=O)NCCC(C)(C)C)c(F)cc3C)c(C)nc2n1` (top concentration 10000 nM), the “selective drug sensitivity score” value is -0.24.
The same measure, in the same setting: with `C[C@@]1(C(=O)Nc2ccc(F)nc2)CCCN1c1nc(Nc2cc(C3CC3)n[nH]2)c2cccn2n1` (top concentration 10000 nM) the figure was 12.5; with `Cc1nc(Nc2n[nH]c3c2CN(C(=O)N[C@H](CN(C)C)c2ccccc2)C3(C)C)c2sccc2n1` (top concentration 10000 nM), 18.6.
Take `Cn1cc(-c2[nH]c3cc(NC(=O)[C@H](N)C4CCCCC4)cc4c3c2C=NNC4=O)cn1` (top concentration 10000 nM): the “selective drug sensitivity score” value turned out to be 6.08.
Same read-out and setting: with `Cn1cc(-c2ccc(F)c(C(F)(F)F)c2)nc1C1CCN(c2ncnc3[nH]ncc23)CC1` (top concentration 10000 nM) the figure was 1.76; with `O=C(Nc1ccc2[nH]nc(-c3ccncc3)c2c1)[C@@H]1CCN(CC(=O)N2CCN(c3ccc(-c4ncccn4)cc3)CC2)C1` (top concentration 10000 nM), -2.04.
With `CC(C)(C)c1cc(NC(=O)Nc2ccc(Oc3ccnc4[nH]c(=O)cnc34)cc2F)n(-c2ccccc2)n1` (top concentration 25000 nM), the “selective drug sensitivity score” value was -2.18.
Regarding `Nc1ncnc2c1nc(N)n2[C@@H]1O[C@H](CO)[C@@H](O)[C@H]1O` [8-amino-adenosine] (top concentration 50000 nM), the “selective drug sensitivity score” value stood at 3.28.
In the case of `CC(C)[C@@H](CS(=O)(=O)C(C)C)N1C(=O)[C@@](C)(CC(=O)O)C[C@H](c2cccc(Cl)c2)[C@H]1c1ccc(Cl)cc1` [AMG-232] (top concentration 10000 nM), the “selective drug sensitivity score” value is 15.1.
For the molecule `CC(C)[C@H](C(=O)Nc1ccc(C(=O)NO)cc1)c1ccccc1` [AR-42] (top concentration 10000 nM), the “selective drug sensitivity score” value is 6.48.
For `O=C(Nc1c[nH]nc1-c1nc2ccc(CN3CCOCC3)cc2[nH]1)NC1CC1` [AT9283] (top concentration 1000 nM), the “selective drug sensitivity score” value was determined as 14.2.
On to `CCN(CCO)CCCOc1ccc2c(Nc3cc(CC(=O)Nc4cccc(F)c4)[nH]n3)ncnc2c1` [AZD1152-HQPA] (top concentration 1000 nM), for which the “selective drug sensitivity score” value was 19.8.
Same read-out and setting: with `Cc1[nH]nc(C(F)(F)F)c1Cc1sc2c(c1C(=O)N1C[C@](C)(O)CO1)c(=O)n(C)c(=O)n2C(C)C` [AZD3965] (top concentration 1000 nM) the figure was 0.3.

Another experiment deals with COG-LL-355h. The experiment is described as above. To be noted: 72 h.
As for `COC12C(COC(N)=O)C3=C(C(=O)C(C)=C(N)C3=O)N1CC1NC12` (stereo in doubt) [Mitomycin_C] (top concentration 10000 nM), the “selective drug sensitivity score” value turned out to be 0.44.
As for `Cc1c(-c2c(-c3ccc(F)o3)sc3ncnc(O[C@H](Cc4ccccc4OCc4ccnn4CC(F)(F)F)C(=O)O)c23)ccc(OCCN2CCN(C)CC2)c1Cl` (top concentration 1000 nM), the “selective drug sensitivity score” value was 4.66.
In the case of `Cc1ncc(Cl)cc1NCc1ccc(C(=O)N[C@@H](CC2CCCC2)C(=O)NC2CC2)s1` (top concentration 5000 nM), the “selective drug sensitivity score” value turned out to be 2.26.
On to `CCn1c(-c2nonc2N)nc2c(C#CC(C)(C)O)ncc(OC[C@H]3CCCNC3)c21` (top concentration 10000 nM), for which the “selective drug sensitivity score” value stood at 8.98.
On to `CN(c1ncccc1CNc1nc(Nc2ccc3c(c2)CC(=O)N3)ncc1C(F)(F)F)S(C)(=O)=O` (top concentration 10000 nM), for which the “selective drug sensitivity score” value worked out at 0.82.
For the molecule `CNc1ncc2cc(-c3cc(NC(=O)NCCC(C)(C)C)c(F)cc3C)c(C)nc2n1` (top concentration 10000 nM), the “selective drug sensitivity score” value was determined as 9.16.
As for `C[C@@]1(C(=O)Nc2ccc(F)nc2)CCCN1c1nc(Nc2cc(C3CC3)n[nH]2)c2cccn2n1` (top concentration 10000 nM), the “selective drug sensitivity score” value is 12.1.
Same read-out and setting: the figure for `Cc1nc(Nc2n[nH]c3c2CN(C(=O)N[C@H](CN(C)C)c2ccccc2)C3(C)C)c2sccc2n1` (top concentration 10000 nM) is 3.98; for `Cn1cc(-c2[nH]c3cc(NC(=O)[C@H](N)C4CCCCC4)cc4c3c2C=NNC4=O)cn1` (top concentration 10000 nM) it is 1.98; for `Cn1cc(-c2ccc(F)c(C(F)(F)F)c2)nc1C1CCN(c2ncnc3[nH]ncc23)CC1` (top concentration 10000 nM) it is -0.14.
Turning to `O=C(Nc1ccc2[nH]nc(-c3ccncc3)c2c1)[C@@H]1CCN(CC(=O)N2CCN(c3ccc(-c4ncccn4)cc3)CC2)C1` (top concentration 10000 nM), the “selective drug sensitivity score” value is 6.26.
In the case of `CC(C)(C)c1cc(NC(=O)Nc2ccc(Oc3ccnc4[nH]c(=O)cnc34)cc2F)n(-c2ccccc2)n1` (top concentration 25000 nM), the “selective drug sensitivity score” value amounted to 1.92.
For `Nc1ncnc2c1nc(N)n2[C@@H]1O[C@H](CO)[C@@H](O)[C@H]1O` [8-amino-adenosine] (top concentration 50000 nM), the “selective drug sensitivity score” value is -1.42.
As for `CC(C)[C@@H](CS(=O)(=O)C(C)C)N1C(=O)[C@@](C)(CC(=O)O)C[C@H](c2cccc(Cl)c2)[C@H]1c1ccc(Cl)cc1` [AMG-232] (top concentration 10000 nM), the “selective drug sensitivity score” value was found to be 8.76.
As to `CC(C)[C@H](C(=O)Nc1ccc(C(=O)NO)cc1)c1ccccc1` [AR-42] (top concentration 10000 nM), the “selective drug sensitivity score” value worked out at 6.68.
With `O=C(Nc1c[nH]nc1-c1nc2ccc(CN3CCOCC3)cc2[nH]1)NC1CC1` [AT9283] (top concentration 1000 nM), the “selective drug sensitivity score” value is 6.22.
On the same count and under the same terms, the figure for `CCN(CCO)CCCOc1ccc2c(Nc3cc(CC(=O)Nc4cccc(F)c4)[nH]n3)ncnc2c1` [AZD1152-HQPA] (top concentration 1000 nM) is 8.84; for `Cc1[nH]nc(C(F)(F)F)c1Cc1sc2c(c1C(=O)N1C[C@](C)(O)CO1)c(=O)n(C)c(=O)n2C(C)C` [AZD3965] (top concentration 1000 nM) it is 0.

The test system of the next experiment is SUP-B15. The description is as above. The following applies: 72 h.
On to `COC12C(COC(N)=O)C3=C(C(=O)C(C)=C(N)C3=O)N1CC1NC12` (stereo in doubt) [Mitomycin_C] (top concentration 10000 nM), for which the “selective drug sensitivity score” value worked out at 1.24.
`Cc1c(-c2c(-c3ccc(F)o3)sc3ncnc(O[C@H](Cc4ccccc4OCc4ccnn4CC(F)(F)F)C(=O)O)c23)ccc(OCCN2CCN(C)CC2)c1Cl` (top concentration 1000 nM): the “selective drug sensitivity score” value is 6.36.
As to `Cc1ncc(Cl)cc1NCc1ccc(C(=O)N[C@@H](CC2CCCC2)C(=O)NC2CC2)s1` (top concentration 5000 nM), the “selective drug sensitivity score” value is 3.46.
For `CCn1c(-c2nonc2N)nc2c(C#CC(C)(C)O)ncc(OC[C@H]3CCCNC3)c21` (top concentration 10000 nM), the “selective drug sensitivity score” value was -0.32.
As to `CN(c1ncccc1CNc1nc(Nc2ccc3c(c2)CC(=O)N3)ncc1C(F)(F)F)S(C)(=O)=O` (top concentration 10000 nM), the “selective drug sensitivity score” value is 4.62.
For `CNc1ncc2cc(-c3cc(NC(=O)NCCC(C)(C)C)c(F)cc3C)c(C)nc2n1` (top concentration 10000 nM), the “selective drug sensitivity score” value was found to be 16.1.
As to `C[C@@]1(C(=O)Nc2ccc(F)nc2)CCCN1c1nc(Nc2cc(C3CC3)n[nH]2)c2cccn2n1` (top concentration 10000 nM), the “selective drug sensitivity score” value turned out to be 8.98.
For the molecule `Cc1nc(Nc2n[nH]c3c2CN(C(=O)N[C@H](CN(C)C)c2ccccc2)C3(C)C)c2sccc2n1` (top concentration 10000 nM), the “selective drug sensitivity score” value came out at 12.8.
On to `Cn1cc(-c2[nH]c3cc(NC(=O)[C@H](N)C4CCCCC4)cc4c3c2C=NNC4=O)cn1` (top concentration 10000 nM), for which the “selective drug sensitivity score” value came to 6.58.

These data come from the supplement of paper PMC8967900.
